Tests used:
JAK1 = JAK1 (Homo sapiens (Human), UniProt P23458); assay: Jak Biochemical HTRF Assay, JAK1; conditions: HTRF biochemical assay, GST-tagged catalytic domain; top concentration tested […]; read-out: JAK1 IC50
Excerpt: (§1) Jak Biochemical HTRF Assay Protocol
(§2) Subsequent reagent additions employed an Agilent Bravo.

JAK2 = JAK2 (Homo sapiens (Human), UniProt O60674); assay: Jak Biochemical HTRF Assay, JAK2; conditions: HTRF biochemical assay, GST-tagged catalytic domain; top concentration tested […]
Sequence of JAK2 (O60674 849-1124): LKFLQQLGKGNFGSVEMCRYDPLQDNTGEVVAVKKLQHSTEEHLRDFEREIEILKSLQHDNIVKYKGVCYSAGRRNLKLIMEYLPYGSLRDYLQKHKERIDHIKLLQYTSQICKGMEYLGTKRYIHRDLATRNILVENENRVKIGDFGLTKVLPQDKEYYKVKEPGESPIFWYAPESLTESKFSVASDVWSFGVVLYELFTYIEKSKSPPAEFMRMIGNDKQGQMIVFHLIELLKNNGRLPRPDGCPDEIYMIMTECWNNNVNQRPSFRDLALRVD
Excerpt: as §1, §2

Sequence of JAK1 (P23458 875-1153): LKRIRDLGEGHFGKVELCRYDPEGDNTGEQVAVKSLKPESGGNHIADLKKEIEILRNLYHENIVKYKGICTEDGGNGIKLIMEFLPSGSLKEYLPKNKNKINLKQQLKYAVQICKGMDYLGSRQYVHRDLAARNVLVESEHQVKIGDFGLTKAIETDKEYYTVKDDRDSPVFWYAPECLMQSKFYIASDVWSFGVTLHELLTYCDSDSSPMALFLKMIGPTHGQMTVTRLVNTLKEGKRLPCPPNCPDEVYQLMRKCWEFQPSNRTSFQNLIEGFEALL

| Compound | IC50 (JAK1) | IC50 (JAK2) |
| --- | --- | --- |
| N#CCC1(n2cc(C(N)=O)c(Nc3ccccc3)n2)CN(C(=O)Nc2ccc(F)c(Cl)c2)C1 [Example 38-40, 1-{1-[(3-chloro-4-fluorophenyl)carbamoyl]-3-(cyanomethyl)azetidin-3-yl}-3-(phenylamino)-1H-pyrazole-4-carboxamide] | 18 nM | 279 nM |
| Cc1ccc(NC(=O)N2CC(CC#N)(n3cc(C(N)=O)c(Nc4ccc(S(C)(=O)=O)cc4)n3)C2)cc1 [Example 38-41, 1-{3-(cyanomethyl)-1-[(4-methylphenyl)carbamoyl]azetidin-3-yl}-3-{[4-(methylsulfonyl)phenyl]amino}-1H-pyrazole-4-carboxamide] | 13 nM | 175 nM |
| CS(=O)(=O)c1ccc(Nc2nn(C3(CC#N)CN(C(=O)Nc4cc(F)ccc4F)C3)cc2C(N)=O)cc1 [Example 38-42, 1-{3-(cyanomethyl)-1-[(2,5-difluorophenyl)carbamoyl]azetidin-3-yl}-3-{[4-(methylsulfonyl)phenyl]amino}-1H-pyrazole-4-carboxamide] | 19 nM | 237 nM |
| CCCCNC(=O)N1CC(CC#N)(n2cc(C(N)=O)c(Nc3ccc(S(C)(=O)=O)cc3)n2)C1 [Example 38-43, 1-[1-(butylcarbamoyl)-3-(cyanomethyl)azetidin-3-yl]-3-{[4-(methylsulfonyl)phenyl]amino}-1H-pyrazole-4-carboxamide] | 20 nM | 322 nM |
| CC(C)NC(=O)N1CCC(CC#N)(n2cc(C(N)=O)c(Nc3ccc(S(=O)(=O)C(F)(F)F)cc3)n2)CC1 [Example 38-44, 4-(4-carbamoyl-3-(4-(trifluoromethylsulfonyl)phenylamino)-1H-pyrazol-1-yl)-4-(cyanomethyl)-N-isopropylpiperidine-1-carboxamide] | 0.1 nM | 2 nM |
| N#CCC1(n2cc(C(N)=O)c(Nc3ccc(S(=O)(=O)C(F)(F)F)cc3)n2)CCN(C(=O)Nc2ccc(C#N)cc2)CC1 [Example 38-45, 4-(4-carbamoyl-3-(4-(trifluoromethylsulfonyl)phenylamino)-1H-pyrazol-1-yl)-4-(cyanomethyl)-N-(4-cyanophenyl)piperidine-1-carboxamide] | 0.1 nM | 0.5 nM |
| CC(C)NC(=O)N1CCC(CC#N)(n2cc(C(N)=O)c(Nc3ccccc3)n2)CC1 [Example 38-46, 4-[4-Carbamoyl-3-(phenylamino)-1H-pyrazol-1-yl]-4-(cyanomethyl)-N-(1-methylethyl)piperidine-1-carboxamide] | 2 nM | 59 nM |
| N#CCC1(n2cc(C(N)=O)c(Nc3ccc(Cl)cc3)n2)CCC(N2CC(F)C2)CC1 (stereo not drawn) [Example 39-1, Cis or trans 3-((4-chlorophenyl)amino)-1-(1-(cyanomethyl)-4-(3-fluoroazetidin-1-yl)cyclohexyl)-1H-pyrazole-4-carboxamide] | 0.09 nM | 2 nM |
| N#CCC1(n2cc(C(N)=O)c(Nc3ccc(F)cc3)n2)CCC(Nc2cccc(F)c2)CC1 (stereo not drawn) [Example 40-3, Cis or trans 1-{1-(cyanomethyl)-4-[(3-fluorophenyl)amino]cyclohexyl}-3-[(4-fluorophenyl)amino]-1H-pyrazole-4-carboxamide] | 119 nM | > 1500 nM |
| N#CCC1(n2cc(C(N)=O)c(Nc3ccc(F)cc3)n2)CCC(NC2CCOCC2)CC1 (stereo not drawn) [Example 40-5, Cis or trans 1-[1-(cyanomethyl)-4-(tetrahydro-2H-pyran-4-ylamino)cyclohexyl]-3-[(4-fluorophenyl)amino]-1H-pyrazole-4-carboxamide] | 449 nM | > 1500 nM |
| N#CCC1(n2cc(C(N)=O)c(Nc3ccnc(F)c3)n2)CCC(Nc2cc(F)ccc2F)CC1 (stereo not drawn) [Example 40-10, Cis or trans 1-{1-(cyanomethyl)-4-[(2,5-difluorophenyl)amino]cyclohexyl}-3-[(2-fluoropyridin-4-yl)amino]-1H-pyrazole-4-carboxamide] | 14 nM | 355 nM |
| N#CCC1(n2cc(C(N)=O)c(Nc3ccnc(F)c3)n2)CCC(Nc2ccccc2Cl)CC1 (stereo not drawn) [Example 40-11, Cis or trans 1-{4-[(2-chlorophenyl)amino]-1-(cyanomethyl)cyclohexyl}-3-[(2-fluoropyridin-4-yl)amino]-1H-pyrazole-4-carboxamide] | 0.2 nM | 7 nM |
| N#CCC1(n2cc(C(N)=O)c(Nc3ccc(F)cc3)n2)CCC(Nc2ccccn2)CC1 (stereo not drawn) [Example 40-12, Cis or trans 1-[1-(cyanomethyl)-4-(pyridin-2-ylamino)cyclohexyl]-3-[(4-fluorophenyl)amino]-1H-pyrazole-4-carboxamide] | 2 nM | 73 nM |
| CN(c1ccccc1)C1CCC(CC#N)(n2cc(C(N)=O)c(Nc3ccnc(F)c3)n2)CC1 (stereo not drawn) [Example 40-15, Cis or trans 1-{1-(cyanomethyl)-4-[methyl(phenyl)amino]cyclohexyl}-3-[(2-fluoropyridin-4-yl)amino]-1H-pyrazole-4-carboxamide] | 0.08 nM | 2 nM |
| N#CCC1(n2cc(C(N)=O)c(Nc3ccc(F)cc3)n2)CCC(Nc2cccc(F)c2)CC1 (stereo not drawn) [Example 40-16, Cis or trans 1-{1-(cyanomethyl)-4-[(3-fluorophenyl)amino]cyclohexyl}-3-[(4-fluorophenyl)amino]-1H-pyrazole-4-carboxamide] | 0.3 nM | 18 nM |
| N#CCC1(n2cc(C(N)=O)c(Nc3ccc(F)cc3)n2)CCC(Nc2ccc(F)cc2)CC1 (stereo not drawn) [Example 40-18, Cis or trans 1-{1-(cyanomethyl)-4-[(4-fluorophenyl)amino]cyclohexyl}-3-[(4-fluorophenyl)amino]-1H-pyrazole-4-carboxamide] | 235 nM | > 1500 nM |
| N#CCC1(n2cc(C(N)=O)c(Nc3ccc(F)cc3)n2)CCC(Nc2ccc(F)cc2)CC1 (stereo not drawn) [Example 40-19, Cis or trans 1-{1-(cyanomethyl)-4-[(4-fluorophenyl)amino]cyclohexyl}-3-[(4-fluorophenyl)amino]-1H-pyrazole-4-carboxamide] | 0.3 nM | 10 nM |
| N#CCC1(n2cc(C(N)=O)c(Nc3ccnc(F)c3)n2)CCC(Nc2ccc(F)c(F)c2)CC1 (stereo not drawn) [Example 40-20, Cis or trans 1-{1-(cyanomethyl)-4-[(3,4-difluorophenyl)amino]cyclohexyl}-3-[(2-fluoropyridin-4-yl)amino]-1H-pyrazole-4-carboxamide] | 1 nM | 43 nM |
| N#CCC1(n2cc(C(N)=O)c(Nc3ccc(F)cc3)n2)CCC(N2CCc3ccccc32)CC1 (stereo not drawn) [Example 40-21, Cis or trans 1-[1-(cyanomethyl)-4-(2,3-dihydro-1H-indol-1-yl)cyclohexyl]-3-[(4-fluorophenyl)amino]-1H-pyrazole-4-carboxamide] | 171 nM | > 1500 nM |
| N#CCC1(n2cc(C(N)=O)c(Nc3ccnc(F)c3)n2)CCC(NC2CCCCC2)CC1 (stereo not drawn) [Example 40-23, Cis or trans 1-[1-(cyanomethyl)-4-(cyclohexylamino)cyclohexyl]-3-[(2-fluoropyridin-4-yl)amino]-1H-pyrazole-4-carboxamide] | 2 nM | 237 nM |
| N#CCC1(n2cc(C(N)=O)c(Nc3ccnc(F)c3)n2)CCC(Nc2ccccc2Cl)CC1 (stereo not drawn) [Example 40-25, Cis or trans 1-{4-[(2-chlorophenyl)amino]-1-(cyanomethyl)cyclohexyl}-3-[(2-fluoropyridin-4-yl)amino]-1H-pyrazole-4-carboxamide] | 63 nM | 940 nM |
| N#CCC1(n2cc(C(N)=O)c(Nc3ccc(S(=O)(=O)C(F)F)cc3)n2)CCC(NC2CCOCC2)CC1 (stereo not drawn) [Example 40-26, Cis or trans 1-[1-(cyanomethyl)-4-(tetrahydro-2H-pyran-4-ylamino)cyclohexyl]-3-({4-[(difluoromethyl)sulfonyl]phenyl}amino)-1H-pyrazole-4-carboxamide] | 0.08 nM | 5 nM |
| N#CCC1(n2cc(C(N)=O)c(Nc3ccc(F)cc3)n2)CCC(N2CCC(O)CC2)CC1 (stereo not drawn) [Example 40-27, Cis or trans 1-[1-(cyanomethyl)-4-(4-hydroxypiperidin-1-yl)cyclohexyl]-3-[(4-fluorophenyl)amino]-1H-pyrazole-4-carboxamide] | 8 nM | 273 nM |
| N#CCC1(n2cc(C(N)=O)c(Nc3ccnc(F)c3)n2)CCC(Nc2cccc(Cl)c2)CC1 (stereo not drawn) [Example 40-29, Cis or trans 1-{4-[(3-chlorophenyl)amino]-1-(cyanomethyl)cyclohexyl}-3-[(2-fluoropyridin-4-yl)amino]-1H-pyrazole-4-carboxamide] | 0.07 nM | 4 nM |
| N#CCC1(n2cc(C(N)=O)c(Nc3ccnc(F)c3)n2)CCC(N2CCc3ccccc32)CC1 (stereo not drawn) [Example 40-30, Cis or trans 1-[1-(cyanomethyl)-4-(2,3-dihydro-1H-indol-1-yl)cyclohexyl]-3-[(2-fluoropyridin-4-yl)amino]-1H-pyrazole-4-carboxamide] | 326 nM | > 1500 nM |
| N#CCC1(n2cc(C(N)=O)c(Nc3ccc(S(=O)(=O)C(F)F)cc3)n2)CCC(N2CCC(F)(F)CC2)CC1 (stereo not drawn) [Example 40-31, Cis or trans 1-[1-(cyanomethyl)-4-(4,4-difluoropiperidin-1-yl)cyclohexyl]-3-({4-[(difluoromethyl)sulfonyl]phenyl}amino)-1H-pyrazole-4-carboxamide] | 0.1 nM | 2 nM |
| N#CCC1(n2cc(C(N)=O)c(Nc3ccnc(F)c3)n2)CCC(Nc2ccc(F)cc2F)CC1 (stereo not drawn) [Example 40-33, Cis or trans 1-{1-(cyanomethyl)-4-[(2,4-difluorophenyl)amino]cyclohexyl}-3-[(2-fluoropyridin-4-yl)amino]-1H-pyrazole-4-carboxamide] | 0.03 nM | 0.8 nM |
| CN(c1ccccc1)C1CCC(CC#N)(n2cc(C(N)=O)c(Nc3ccnc(F)c3)n2)CC1 (stereo not drawn) [Example 40-34, Cis or trans 1-{1-(cyanomethyl)-4-[methyl(phenyl)amino]cyclohexyl}-3-[(2-fluoropyridin-4-yl)amino]-1H-pyrazole-4-carboxamide] | 4 nM | 105 nM |

Reference: patent US9328099B2, “Cyanomethylpyrazole carboxamides as janus kinase inhibitors” (Merck Sharp & Dohme Corp., priority 2011, dated 2016)
